Assay: cysteine challenge experiment (stability of Re and Tc carborane complexes)
Type: physicochemical
Settings: thousand fold excess of cysteine, 1:1 (v/v) phosphate buffer (pH=7.4)-ethanol, 37° C., over 24 hours
Procedure: The stability of the Re and Tc carborane complexes were evaluated using a cysteine challenge experiment.^21 Compound 1, for example, was incubated with a thousand fold excess of cysteine in a 1:1 (v/v) phosphate buffer (pH=7.4)-ethanol mixture at 37° C. over 24 hours.

stability (decomposition) in cysteine challenge by HPLC, FTIR and electrospray mass spectrometry: no signs of decomposition
Substance: [NEt4][Re(CO)3(η^5-7,8-C2B9H11)] [Compound 1]
